Measured values: PubChem BioAssay (NCI)
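How tested: cells in 96-well plates exposed to compound for 48 hours at five concentrations. Here, GI50 denotes the concentration required for 50% inhibition of growth. At the TGI there is no net growth.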

Tests used:
Test in all cases: NCI tumour cell line growth inhibition, 48 h
[1] = tested on: NCI-H23 lung
[2] = tested on: NCI-H460 lung
[3] = tested on: NCI-H522 lung
[4] = tested on: NCI/ADR-RES ovarian
[5] = tested on: OVCAR-3 ovarian
[6] = tested on: OVCAR-4 ovarian
[7] = tested on: OVCAR-5 ovarian
[8] = tested on: OVCAR-8 ovarian
[9] = tested on: PC-3 prostate
[10] = tested on: RPMI-8226 leukemia
[11] = tested on: RXF 393 renal
[12] = tested on: SF-268 CNS
[13] = tested on: SF-295 CNS
[14] = tested on: SF-539 CNS
[15] = tested on: SK-MEL-2 melanoma
[16] = tested on: SK-MEL-28 melanoma
[17] = tested on: SK-MEL-5 melanoma
[18] = tested on: SK-OV-3 ovarian
[19] = tested on: SN12C renal
[20] = tested on: SNB-19 CNS
[21] = tested on: SNB-75 CNS
[22] = tested on: SR leukemia
[23] = tested on: SW-620 colon
[24] = tested on: T-47D breast
[25] = tested on: TK-10 renal
[26] = tested on: U251 CNS
[27] = tested on: UACC-257 melanoma
[28] = tested on: UACC-62 melanoma
[29] = tested on: UO-31 renal

CC(=C(c1ccc(OCCN(C)C)cc1)c1ccc(OCCN(C)C)cc1)c1ccc(Cl)cc1
GI50 [1]: 2600 nM
TGI [1]: 7170 nM
GI50 [2]: 756 nM
TGI [2]: 1760 nM
GI50 [3]: 756 nM
TGI [3]: 2100 nM
GI50 [4]: 951 nM
TGI [4]: 2950 nM
GI50 [5]: 756 nM
TGI [5]: 2010 nM
GI50 [6]: 1010 nM
TGI [6]: 3100 nM
GI50 [7]: 1340 nM
TGI [7]: 5260 nM
GI50 [8]: 1170 nM
TGI [8]: 4360 nM
GI50 [9]: 932 nM
TGI [9]: 3260 nM
GI50 [10]: 651 nM
TGI [10]: 1580 nM
GI50 [11]: 706 nM
TGI [11]: 2080 nM
GI50 [12]: 1600 nM
TGI [12]: 6210 nM
GI50 [13]: 653 nM
TGI [13]: 1380 nM
GI50 [14]: 566 nM
TGI [14]: 1100 nM
GI50 [15]: 2100 nM
TGI [15]: 4820 nM
GI50 [16]: 605 nM
TGI [16]: 1130 nM
GI50 [17]: 597 nM
TGI [17]: 1090 nM
GI50 [18]: 4800 nM
TGI [18]: 9530 nM
GI50 [19]: 1920 nM
TGI [19]: 5740 nM
GI50 [20]: 1160 nM
TGI [20]: 4360 nM
GI50 [21]: 2580 nM
TGI [21]: 7600 nM
GI50 [22]: 638 nM
TGI [22]: 3290 nM
GI50 [23]: 569 nM
TGI [23]: 1170 nM
GI50 [24]: 633 nM
TGI [24]: 1410 nM
GI50 [25]: 4770 nM
TGI [25]: 9680 nM
GI50 [26]: 631 nM
TGI [26]: 1460 nM
GI50 [27]: 632 nM
TGI [27]: 1270 nM
GI50 [28]: 576 nM
TGI [28]: 1130 nM
GI50 [29]: 847 nM
TGI [29]: 2650 nM
